Laboratory results as given in patent publication US8147838B2, “Peptide” (priority 2005, dated 2012).

Tested on: PBMCs recovered from TroVax treated patients
Type: cell-based, human
Conditions: for most likely HLA restriction: from HLA-type frequency among responding patients; for HLA-type distribution among positive proliferative responses: DQ2: responding patients with HLA type DQ2 / all responding patients; for HLA-type distribution among positive proliferative responses: DQ2 / HLA-type distribution among positive proliferative responses: DQ4 / HLA-type distribution among positive proliferative responses: DQ5 / HLA-type distribution among positive proliferative responses: DQ6 / HLA-type distribution among positive proliferative responses: DQ7 / HLA-type distribution among positive proliferative responses: DQ8 / HLA-type distribution among positive proliferative responses: DQ9 / HLA-type distribution among positive proliferative responses: DR1 / HLA-type distribution among positive proliferative responses: DR4 / HLA-type distribution among positive proliferative responses: DR7 / HLA-type distribution among positive proliferative responses: DR8 / HLA-type distribution among positive proliferative responses: DR9 / HLA-type distribution among positive proliferative responses: DR11 / HLA-type distribution among positive proliferative responses: DR13 / HLA-type distribution among positive proliferative responses: DR15 / HLA-type distribution among positive proliferative responses: DR17 / HLA-type distribution among positive proliferative responses: DR51 / HLA-type distribution among positive proliferative responses: DR52 / HLA-type distribution among positive proliferative responses: DR53: PBMCs from TroVax treated patients; for HLA-type distribution among positive proliferative responses: DQ4: responding patients with HLA type DQ4 / all responding patients; for HLA-type distribution among positive proliferative responses: DQ5: responding patients with HLA type DQ5 / all responding patients; for HLA-type distribution among positive proliferative responses: DQ6: responding patients with HLA type DQ6 / all responding patients; for HLA-type distribution among positive proliferative responses: DQ7: responding patients with HLA type DQ7 / all responding patients; for HLA-type distribution among positive proliferative responses: DQ8: responding patients with HLA type DQ8 / all responding patients; for HLA-type distribution among positive proliferative responses: DQ9: responding patients with HLA type DQ9 / all responding patients; for HLA-type distribution among positive proliferative responses: DR1: responding patients with HLA type DR1 / all responding patients; for HLA-type distribution among positive proliferative responses: DR4: responding patients with HLA type DR4 / all responding patients; for HLA-type distribution among positive proliferative responses: DR7: responding patients with HLA type DR7 / all responding patients; for HLA-type distribution among positive proliferative responses: DR8: responding patients with HLA type DR8 / all responding patients; for HLA-type distribution among positive proliferative responses: DR9: responding patients with HLA type DR9 / all responding patients; for HLA-type distribution among positive proliferative responses: DR11: responding patients with HLA type DR11 / all responding patients; for HLA-type distribution among positive proliferative responses: DR13: responding patients with HLA type DR13 / all responding patients; for HLA-type distribution among positive proliferative responses: DR15: responding patients with HLA type DR15 / all responding patients; for HLA-type distribution among positive proliferative responses: DR17: responding patients with HLA type DR17 / all responding patients; for HLA-type distribution among positive proliferative responses: DR51: responding patients with HLA type DR51 / all responding patients; for HLA-type distribution among positive proliferative responses: DR52: responding patients with HLA type DR52 / all responding patients; for HLA-type distribution among positive proliferative responses: DR53: responding patients with HLA type DR53 / all responding patients
[1] = positive proliferative responses

Substance | most likely HLA restriction | HLA-type distribution among positive proliferative responses: DQ2 | HLA-type distribution among positive proliferative responses: DQ4 | HLA-type distribution among positive proliferative responses: DQ5 | HLA-type distribution among positive proliferative responses: DQ6 | HLA-type distribution among positive proliferative responses: DQ7 | HLA-type distribution among positive proliferative responses: DQ8 | HLA-type distribution among positive proliferative responses: DQ9 | HLA-type distribution among positive proliferative responses: DR1 | HLA-type distribution among positive proliferative responses: DR4 | HLA-type distribution among positive proliferative responses: DR7 | HLA-type distribution among positive proliferative responses: DR8 | HLA-type distribution among positive proliferative responses: DR9 | HLA-type distribution among positive proliferative responses: DR11 | HLA-type distribution among positive proliferative responses: DR13 | HLA-type distribution among positive proliferative responses: DR15 | HLA-type distribution among positive proliferative responses: DR17 | HLA-type distribution among positive proliferative responses: DR51 | HLA-type distribution among positive proliferative responses: DR52 | HLA-type distribution among positive proliferative responses: DR53 | further results
36.2: class II 5T4 20 mer peptide (details in Table 12) (LQGLPHIRVFLDNNPWVCDC) [Peptide 36.2] | DQ2, DR7, or DR53 | 3/7 | 0/7 | 2/7 | 2/7 | 2/7 | 0/7 | 2/7 | 2/7 | 1/7 | 3/7 | 0/7 | 1/7 | 1/7 | 1/7 | 2/7 | 1/7 | 2/7 | 2/7 | 3/7 | responders with HLA type DQ2 out of all responders [1]: 3 out of 7; responders with HLA type DR7 out of all responders [1]: 3 out of 7; responders with HLA type DR53 out of all responders [1]: 3 out of 7
40.2: class II 5T4 20 mer peptide (details in Table 12) (EVVQGKDRLTCAYPEKMRNR) [Peptide 40.2] | DQ6, DR15, DR51, or DR52 | 5/12 | 1/12 | 2/12 | 8/12 | 3/12 | 0/12 | 2/12 | 1/12 | 1/12 | 3/12 | 1/12 | 1/12 | 1/12 | 3/12 | 6/12 | 3/12 | 6/12 | 6/12 | 4/12 | responders with HLA type DQ6 out of all responders [1]: 8 out of 12; responders with HLA type DR15 out of all responders [1]: 6 out of 12; responders with HLA type DR51 out of all responders [1]: 6 out of 12; responders with HLA type DR52 out of all responders [1]: 6 out of 12
42.2: class II 5T4 20 mer peptide (details in Table 12) (MRNRVLLELNSADLDCDPIL) [Peptide 42.2] | DQ6, DR51, DQ5, or DR15 | 4/12 | 0/12 | 6/12 | 8/12 | 0/12 | 1/12 | 1/12 | 4/12 | 1/12 | 3/12 | 0/12 | 0/12 | 1/12 | 2/12 | 6/12 | 2/12 | 7/12 | 5/12 | 3/12 | responders with HLA type DQ5 out of all responders [1]: 6 out of 12; responders with HLA type DQ6 out of all responders [1]: 8 out of 12; responders with HLA type DR15 out of all responders [1]: 6 out of 12; responders with HLA type DR51 out of all responders [1]: 7 out of 12
43.2: class II 5T4 20 mer peptide (details in Table 12) (LNSADLDCDPILPPSLQTSY) [Peptide 43.2] | DQ6, DR15, or DR51 | 5/11 | 1/11 | 3/11 | 7/11 | 1/11 | 0/11 | 1/11 | 2/11 | 0/11 | 4/11 | 1/11 | 0/11 | 1/11 | 2/11 | 6/11 | 2/11 | 6/11 | 4/11 | 3/11 | responders with HLA type DQ6 out of all responders [1]: 7 out of 11; responders with HLA type DR15 out of all responders [1]: 6 out of 11; responders with HLA type DR51 out of all responders [1]: 6 out of 11
44.2: class II 5T4 20 mer peptide (details in Table 12) (DPILPPSLQTSYVFLGIVLA) [Peptide 44.2] | DQ6, DR15, DR51, or DR52 | 3/9 | 0/9 | 3/9 | 5/9 | 3/9 | 0/9 | 1/9 | 2/9 | 1/9 | 0/9 | 0/9 | 1/9 | 1/9 | 1/9 | 5/9 | 3/9 | 5/9 | 5/9 | 2/9 | responders with HLA type DQ6 out of all responders [1]: 5 out of 9; responders with HLA type DR15 out of all responders [1]: 5 out of 9; responders with HLA type DR51 out of all responders [1]: 5 out of 9; responders with HLA type DR52 out of all responders [1]: 5 out of 9
45.2: class II 5T4 20 mer peptide (details in Table 12) (MRNRVLLELNSADLDCDPIL) [Peptide 45.2] | DQ6, DR53, DR15, or DR51 | 3/8 | 0/8 | 2/8 | 5/8 | 3/8 | 0/8 | 0/8 | 2/8 | 3/8 | 2/8 | 0/8 | 0/8 | 0/8 | 1/8 | 4/8 | 1/8 | 4/8 | 2/8 | 5/8 | responders with HLA type DQ6 out of all responders [1]: 5 out of 8; responders with HLA type DR15 out of all responders [1]: 4 out of 8; responders with HLA type DR51 out of all responders [1]: 4 out of 8; responders with HLA type DR53 out of all responders [1]: 5 out of 8
